These are literature values, as cited in US20250213575A1, “8-HETEROCYCLIC-3-(PHENYLSULFONYL)-[1,2,3]TRIAZOLO[1,5A]QUINAZOLIN-5(4H)-ONE DERIVATIVES AS ANTI-BACTERIALS” (priority 2022, published 2025).

One series concerns red blood cell (RBC). The settings on record: cited from earlier work.
The next series relates to MRSA USA300 type strain. The settings on record: mice, applied multiple times; cited from earlier work.
The next series deals with S. aureus. The following applies: after multiple passages with Savirin; cited from earlier work.

Take `CC(C)c1ccc(S(=O)(=O)c2nnn3c2nc(O)c2ccccc23)cc1` [Savirin]: in the series on red blood cell (RBC), the “exotoxin-induced red blood cell (RBC) lysis” value is given as “inhibited”. For the same compound, in the series with MRSA USA300 type strain, the “abscess size and dermonecrosis” value is recorded as “significant reduction”. Moreover, the resistance development result with S. aureus is recorded as “No resistance was developed”.
